The results in this text go back to patent US8119683B2, “Aryl substituted sulfonamide compounds and their use as anticancer agents” (Taipei Medical University, priority 2009, dated 2012).

The term melting point denotes the temperature of the solid-liquid transition.

For data set [1], the system named is Human oral epidermoid carcinoma KB cells. Nature of the data set: Cell growth inhibition assay (methylene blue dye), KB cells. Type of data set: cell-based. The note with it: KB cells, bands, read-out: IC50, inhibiting proliferation of KB cells (band). The method, then: Anticancer activities of the aryl substituted sulfonamide compounds synthesized in the above examples were evaluated by testing their inhibitory effects on mammalian cancer cell growth.
Human oral epidermoid carcinoma KB cells, non small cell lung carcinoma H460 cells, colorectal carcinoma HT29 cells, and stomach carcinoma MKN45 cells were maintained in RPMI-1640 medium supplied with 5% fetal bovine serum. The cells were treated with the test compound at various concentrations for 72 h.

Molecule `COc1ccc(S(=O)(=O)n2ccc3ccnc(Nc4ccccc4)c32)cc1` [Compound 1, [1-(4-methoxy-benzenesulfonyl)-1H-pyrrolo[2,3-c]pyridin-7-yl]-phenyl-amine] showed a melting point of 138.5 to 139.7 °C.

Consider `COc1ccc(S(=O)(=O)n2ccc3ccnc(N(C)C)c32)cc1` [Compound 3, [1-(4-methoxy-benzenesulfonyl)-1H-pyrrolo[2,3-c]pyridin-7-yl]-dimethyl-amine], for which the melting point is 154.8 to 157.5 °C. The same measure, in the same setting: the figure for `COc1ccc(Nc2nccc3ccn(S(=O)(=O)c4ccc(OC)cc4)c23)cc1` [Compound 4, [1-(4-methoxy-benzenesulfonyl)-1H-pyrrolo[2,3-c]pyridin-7-yl]-(4-methoxy-phenyl)-amine] is 155.5 to 158.3 °C. Same read-out and setting: the figure for `COc1ccc(S(=O)(=O)n2ccc3ccnc(Nc4ccc(F)cc4)c32)cc1` [Compound 5, (4-fluoro-phenyl)-[1-(4-methoxy-benzenesulfonyl)-1H-pyrrolo[2,3-c]pyridin-7-yl]-amine] is 125.1 to 127.1 °C; for `COc1ccc(S(=O)(=O)n2ccc3ccnc(-c4ccccc4)c32)cc1` [Compound 6, 1-(4-methoxy-benzenesulfonyl)-7-phenyl-1H-pyrrolo[2,3-c]pyridine] it is 148.9 to 151 °C. Still for that read-out and setting: to `COC(=O)c1ccc(-c2nccc3ccn(S(=O)(=O)c4ccc(OC)cc4)c23)cc1` [Compound 7, 4-[1-(4-methoxy-benzenesulfonyl)-1H-pyrrolo[2,3-c]pyridin-7-yl]-benzoic acid methyl ester] belongs 143.5 to 146.5 °C. As to `COc1ccc(S(=O)(=O)n2ccc3ccnc(-c4ccc(F)cc4)c32)cc1` [Compound 8, 7-(4-fluoro-phenyl)-1-(4-methoxy-benzenesulfonyl)-1H-pyrrolo[2,3-c]pyridine], the melting point lay within 136 to 137 °C. Molecule `COc1ccc(S(=O)(=O)n2ccc3ccnc(-c4ccc(Cl)cc4)c32)cc1` [Compound 9, 7-(4-chloro-phenyl)-1-(4-methoxy-benzenesulfonyl)-1H-pyrrolo[2,3-c]pyridine] came in with a melting point of 125.5 to 128.5 °C.

Consider `COc1ccc(S(=O)(=O)n2ccc3ccnc(-c4ccc(O)cc4)c32)cc1` [Compound 10, 4-[1-(4-methoxy-benzenesulfonyl)-1H-pyrrolo[2,3-c]pyridin-7-yl]-phenol], for which the melting point fell in the range of 179 to 182 °C. The same measure, in the same setting: to `COc1ccc(-c2nccc3ccn(S(=O)(=O)c4ccc(OC)cc4)c23)cc1` [Compound 11, 1-(4-methoxy-benzenesulfonyl)-7-(4-methoxy-phenyl)-1H-pyrrolo[2,3-c]pyridine] belongs 162.8 to 164.8 °C; to `COc1ccc(S(=O)(=O)n2ccc3ccnc(-c4ccc(N(C)C)cc4)c32)cc1` [Compound 12, {4-[1-(4-methoxy-benzenesulfonyl)-1H-pyrrolo[2,3-c]pyridin-7-yl]-phenyl}-dimethyl-amine], 111.5 to 114.5 °C.

Molecule `COc1ccc(S(=O)(=O)n2ccc3ccnc(-c4ccncc4)c32)cc1` [Compound 13, 1-(4-methoxy-benzenesulfonyl)-7-pyridin-4-yl-1H-pyrrolo[2,3-c]pyridine] came in with a melting point of 193.1 to 194.3 °C.

Molecule `COc1ccc(S(=O)(=O)n2ccc3ccnc(-c4ccc([N+](=O)[O-])cc4)c32)cc1` [Compound 14, 1-(4-methoxy-benzenesulfonyl)-7-(4-nitro-phenyl)-1H-pyrrolo[2,3-c]pyridine] had a melting point of 177.5 to 178.8 °C.

`COc1ccc(S(=O)(=O)n2ccc3ccnc(-c4ccc(C(F)(F)F)cc4)c32)cc1` [Compound 15, 1-(4-methoxy-benzenesulfonyl)-7-(4-trifluoromethyl-phenyl)-1H-pyrrolo[2,3-c]pyridine]: the melting point is 143.1 to 144.9 °C. Same read-out and setting: to `COc1ccc(S(=O)(=O)n2ccc3ccnc(-c4ccco4)c32)cc1` [Compound 16, 7-furan-2-yl-1-(4-methoxy-benzenesulfonyl)-1H-pyrrolo[2,3-c]pyridine] belongs 127.1 to 130.3 °C; to `COc1ccc(S(=O)(=O)n2ccc3cccc(-c4ccc(C#N)cc4)c32)cc1` [Compound 18, 4-[1-(4-methoxy-benzenesulfonyl)-1H-indol-7-yl]-benzonitrile], 164.3 to 165.7 °C; to `COc1ccc(S(=O)(=O)n2ccc3cccc(-c4ccc(F)cc4)c32)cc1` [Compound 19, 7-(4-fluoro-phenyl)-1-(4-methoxy-benzenesulfonyl)-1H-indole], 181.2 to 182.4 °C. `COc1ccc(S(=O)(=O)N2CCc3cccc(-c4ccc(N)cc4)c32)cc1` [Compound 20, 4-[1-(4-methoxy-benzenesulfonyl)-2,3-dihydro-1H-indol-7-yl]-phenylamine] came in with a melting point of 183.9 to 185.6 °C. Further, the IC50 in data set [1] is 100 to 700 nM. Consider `COc1ccc(S(=O)(=O)N2CCc3cccc(-c4ccc(F)c(F)c4)c32)cc1` [Compound 21, 7-(3,4-difluoro-phenyl)-1-(4-methoxy-benzenesulfonyl)-2,3-dihydro-1H-indole], for which the melting point lay within 180.2 to 181.4 °C. Also, the IC50 in data set [1] was in the range of 1 to 99 nM. The like results for `COc1ccc(-c2cccc3c2N(S(=O)(=O)c2ccc(OC)cc2)CC3)cc1` [Compound 23, 1-(4-methoxy-benzenesulfonyl)-7-(4-methoxy-phenyl)-2,3-dihydro-1H-indole] were, in that order, 176.3 to 177.4 °C and 100 to 700 nM. The corresponding values for `COc1ccc(S(=O)(=O)N2CCc3cccc(-c4ccc(F)nc4)c32)cc1` [Compound 25, 7-(6-fluoro-pyridin-3-yl)-1-(4-methoxy-benzenesulfonyl)-2,3-dihydro-1H-indole] are 139.8 to 141.7 °C and 100 to 700 nM. As to `COc1ccc(S(=O)(=O)N2CCc3cccc(-c4ccc(O)cc4)c32)cc1` [Compound 26, 4-[1-(4-methoxy-benzenesulfonyl)-2,3-dihydro-1H-indol-7-yl]-phenol], the melting point fell in the range of 179.4 to 180.5 °C. In addition, in data set [1], the IC50 was in the range of 100 to 700 nM.

In the case of `COc1ccc(S(=O)(=O)N2CCc3cccc(-c4ccc(F)cc4)c32)cc1` [Compound 28, 7-(4-fluoro-phenyl)-1-(4-methoxy-benzenesulfonyl)-2,3-dihydro-1H-indole], the melting point is 178.1 to 179.4 °C. For the same molecule, the IC50 in data set [1] fell in the range of 1 to 99 nM. The like results for `COc1ccc(S(=O)(=O)N2CCc3cccc(-c4ccco4)c32)cc1` [Compound 29, 7-furan-2-yl-1-(4-methoxy-benzenesulfonyl)-2,3-dihydro-1H-indole] were, in that order, 176.7 to 177.7 °C and 1 to 99 nM. The like results for `COc1ccc(S(=O)(=O)N2CCc3cccc(-c4cccs4)c32)cc1` [Compound 30, 1-(4-methoxy-benzenesulfonyl)-7-thiophen-2-yl-2,3-dihydro-1H-indole] were, in that order, 127.7 to 129.1 °C and 100 to 700 nM. The like results for `COc1ccc(S(=O)(=O)N2CCc3cccc(-c4ccc(N(C)C)cc4)c32)cc1` [Compound 31, {4-[1-(4-methoxy-benzenesulfonyl)-2,3-dihydro-1H-indol-7-yl]-phenyl}-dimethyl-amine] were, in that order, 178.4 to 179.7 °C and 100 to 700 nM.

For the molecule `COc1ccc(S(=O)(=O)N2CCc3cccc(-c4cc(OC)c(OC)c(OC)c4)c32)cc1` [Compound 32, 1-(4-methoxy-benzenesulfonyl)-7-(3,4,5-trimethoxy-phenyl)-2,3-dihydro-1H-indole], the melting point was 202.5 to 204.8 °C. With `COc1ccc(S(=O)(=O)N2CCc3cccc(-c4ccc(Cl)cc4)c32)cc1` [Compound 33, 7-(4-chloro-phenyl)-1-(4-methoxy-benzenesulfonyl)-2,3-dihydro-1H-indole], the melting point was 177.1 to 178.3 °C. Further, the IC50 in data set [1] lay in the range of 100 to 700 nM. For `COc1ccc(S(=O)(=O)N2CCc3cccc(-c4ccc(C(F)(F)F)cc4)c32)cc1` [Compound 34, 1-(4-methoxy-benzenesulfonyl)-7-(4-trifluoromethyl-phenyl)-2,3-dihydro-1H-indole], the melting point fell in the range of 179.7 to 181 °C. Also, the IC50 in data set [1] fell in the range of 100 to 700 nM. `COc1ccc(S(=O)(=O)N2CCc3cccc(-c4cccc(F)c4)c32)cc1` [Compound 35, 7-(3-fluoro-phenyl)-1-(4-methoxy-benzenesulfonyl)-2,3-dihydro-1H-indole] gave a melting point of 180 to 181.3 °C.

The molecule `COc1ccc(S(=O)(=O)N2CCc3cccc(-c4ccccn4)c32)cc1` [Compound 36, 1-(4-methoxy-benzenesulfonyl)-7-pyridin-2-yl-2,3-dihydro-1H-indole] registered a melting point of 195.1 to 197 °C. Besides, in data set [1], the IC50 lay in the range of 1 to 99 nM. `COc1ccc(S(=O)(=O)N2CCc3cccc(-c4ccc(C=CC(=O)NO)cc4)c32)cc1` [Compound 41, N-hydroxy-3-{4-[1-(4-methoxy-benzenesulfonyl)-2,3-dihydro-1H-indol-7-yl]-phenyl}-acrylamide] gave a melting point of 200 to 201 °C. The molecule `NS(=O)(=O)c1ccc(S(=O)(=O)N2CCc3cccc(-c4ccc(F)cc4)c32)cc1` [Compound 42, 4-[7-(4-fluoro-phenyl)-2,3-dihydro-indole-1-sulfonyl]-benzenesulfonamide] displayed a melting point of 188.7 to 190.2 °C. On to `NS(=O)(=O)c1ccc(S(=O)(=O)N2CCc3cccc(-c4ccncc4)c32)cc1` [Compound 43, 4-(7-pyridin-4-yl-2,3-dihydro-indole-1-sulfonyl)-benzenesulfonamide], for which the melting point is 241.7 to 242.9 °C.

`COc1ccc(S(=O)(=O)n2ccc3ccnc(-c4cccs4)c32)cc1` [Compound 44, 1-(4-methoxy-benzenesulfonyl)-7-thiophen-2-yl-1H-pyrrolo[2,3-c]pyridine]: the melting point was 112.2 to 113.7 °C. In turn, `COc1ccc(S(=O)(=O)N2CCc3cccc(-c4cccnc4)c32)cc1` [Compound 46, 1-(4-methoxy-benzenesulfonyl)-7-pyridin-3-yl-2,3-dihydro-1H-indole] yielded a melting point of 178.8 to 181 °C.
